Common to all, as to type: cell-based
The subject of test [1] is A549 cells. Put plainly: Endocytosis inhibitor pretreatment, EGFP mRNA expression. As to conditions: n=3; for Expression of EGFP mRNA delivered by soluporation in the presence of inhibitor: pretreatment: Dynasore 4 mM, chloropromazine 20 μM, Nystatin 20 μg/ml, EIPA 100 μM. The protocol:
To test the contribution of alternate uptake mechanisms such as active pathways and internalization in endocytotic vesicles, A549 cells were pretreated with Dynasore (4 mM) or chloropromazine (20 μM) to inhibit clathrin-mediated endocytosis or Nystatin (20 μg/ml) or EIPA (100 μM) to inhibit caveolar-mediated endocytosis and micropinocytosis respectively.

Test [2] concerns A549 cells. Put plainly: Resealing of plasma membrane after permeabilization, PI uptake by flow cytometry. As to conditions: delivery solution without cargo, PI 100 μg/ml, n=3. The protocol:
It was noted that the delivery method was very gentle on cells with little if any cell death or damage evident. […] To examine the rate of recovery of the cell membrane after permeabilization, delivery solution was applied to A549 cells in the absence of cargo. At subsequent time points (0 to 182.5 min), this delivery solution was removed and 50 μl PBS containing propidium iodide (PI) (100 μg/ml) is added. After 2 min incubation, the PI solution was removed and the cells were harvested. PI uptake was analysed by flow cytometry. For basal levels of PI uptake, untreated cells received 50 μl PI in PBS. […] After 6 minutes there is no further uptake. Thus not only do the cells load within 2 minutes of exposure to the delivery solution, but the membrane has effectively recovered its integrity within 6 minutes of beginning the procedure.

The next test has as its system Jurkat cells. Put plainly: Delivery of fluorescently-labelled proteins to Jurkat monolayer on transwell insert, flow cytometry. The following applies: soluporation. The procedure: In order to form a monolayer of suspension cells that would allow the cells to be presented optimally to the spray, a transwell insert system was used. Cells were seeded at 1×10^6 in 400 μl per insert and the media was removed by placing the transwell insert (Greiner bio-one; CAT #655640; 12 Well ThinCert; PET 0.4 μm) into a device that allowed a vacuum to be applied to the bottom of the insert (between −0.5 bar and −0.65 bar; see FIGS. 14A, B, C). Once the media was removed the remaining cells formed a monolayer to which the spray can be applied. Non-adherent cells such as PBMCs, primary T-cells, or a cell line, e.g., Jurkat T cells, were added to the insert system, the vacuum applied and the insert placed into a 12 well plate and sprayed with delivery solution (10 lid) containing test payload such as either fluorescently-labelled beta-lactoglobulin (BLG), bovine serum albumin (BSA) or ovalburnin (OVA). Stop solution (50 μl) was applied after a 2 minute incubation and 30 s later normal media (100 μl) was applied.

Results on seven compounds are retold here after patent US12060570B2, “Vector-free intracellular delivery by reversible permeabilisation” (Avectas Limited, priority 2016, dated 2024).

As for `O=C(N/N=C/c1ccc(O)c(O)c1)c1cc2ccccc2cc1O` [Dynasore], the “GFP expression in lipofected cells (Lipofectamine 2000)” value in the test on A549 cells [1] (Dynasore treated) is recorded as “significantly reduced”. In addition, the “Expression of EGFP mRNA delivered by soluporation in the presence of inhibitor” value (from here on “Expression of EGFP mRNA delivered … of inhibitor”) with A549 cells [1] is given as “remained unchanged”.

In the case of `CCN(c1nc(N)c(C(=O)NC(=N)N)nc1Cl)C(C)C` [EIPA], the “Expression of EGFP mRNA delivered … of inhibitor” value in the test on A549 cells [1] is “remained unchanged”. For `C[C@@H]1[C@H](O)[C@@H](C)/C=C/C=C/CC/C=C/C=C/C=C/C=C/C(O[C@H]2O[C@H](C)[C@@H](O)[C@H](N)[C@@H]2O)CC2O[C@](O)(CC(O)C(O)CCC(O)CC(O)CC(O)CC(=O)O[C@H]1C)CC(O)C2C(=O)O` (some centres unmarked) [Nystatin], the “Expression of EGFP mRNA delivered … of inhibitor” value in the test with A549 cells [1] was “remained unchanged”. For `CN(C)CCCN1c2ccccc2Sc2ccc(Cl)cc21` [chloropromazine], in the test on A549 cells [1], the “Expression of EGFP mRNA delivered … of inhibitor” value was “remained unchanged”.

Turning to `CC[N+](C)(CC)CCC[n+]1c(-c2ccccc2)c2cc(N)ccc2c2ccc(N)cc21.[I-].[I-]` [propidium iodide], the “time post treatment over which cells remain permeable to PI before resealing” value in the test with A549 cells [2] is ≤ 6 min.

Take bovine serum albumin [BSA]: the “Expression levels (fluorescently-labelled protein)” value with Jurkat cells is given as 28.5%. For ovalbumin, the “Expression levels (fluorescently-labelled protein)” value in the test with Jurkat cells came to 15.3%.
